This is an account of results in patent US11072617B2, “Bicyclic sulfones and sulfoxides and methods of use thereof” (Genentech, Inc., priority 2017, dated 2021).

pKi: −log10 of the molar value. Bounds are passed on as bounds.

The target of this assay is human RIP1 kinase domain (2-375) (Homo sapiens (Human), UniProt Q13546). The experiment in a line: RIP1 kinase inhibition biochemical assay (Transcreener ADP, fluorescence polarization). Particulars: Ki app from tight-binding Morrison equation; 50 nM enzyme, 50 uM ATP, 2 hours incubation. The procedure, abridged: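 Baculovirus-expressed human RIP1 kinase domain (2-375), 50 nM, incubated 2 h with compounds in pH 7.5 Hepes, 30 mM MgCl2, 50 uM ATP, 0.5% DMSO. ADP detected by Transcreener fluorescence-polarization tracer displacement; Ki^app from Morrison tight-binding fit.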
Sequence of human RIP1 kinase domain (2-375) (Q13546 2-375): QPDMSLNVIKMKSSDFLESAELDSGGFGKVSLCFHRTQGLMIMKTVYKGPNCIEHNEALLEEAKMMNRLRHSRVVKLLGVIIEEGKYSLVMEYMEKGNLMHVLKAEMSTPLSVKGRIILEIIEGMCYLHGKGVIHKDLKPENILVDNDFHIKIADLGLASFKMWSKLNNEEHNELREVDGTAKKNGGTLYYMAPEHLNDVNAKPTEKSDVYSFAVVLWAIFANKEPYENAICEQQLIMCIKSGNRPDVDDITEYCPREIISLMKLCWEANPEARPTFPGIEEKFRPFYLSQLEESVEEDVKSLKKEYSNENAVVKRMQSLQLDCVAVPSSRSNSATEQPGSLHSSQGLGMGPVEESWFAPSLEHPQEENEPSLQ

The pKi is the negative decadic logarithm of the Ki, by convention in mol/L. Compound `O=S(=O)(c1nc2n(n1)[C@H](c1cc(F)cc(Cl)c1)C[C@@H]2F)C1CC1` (single isomer, unassigned) [Example 214] gave a pKi of 7.54. Then `O=S(=O)(c1nc2n(n1)[C@H](c1cc(F)cc(Cl)c1)C[C@@H]2F)C(F)F` (single isomer, unassigned) [Example 215], with 7.49; and `O=S(=O)(c1nc2n(n1)[C@H](c1cccc(F)c1F)C[C@@H]2F)[C@H]1C[C@@H]1F` (single isomer, unassigned) [Example 217], with 8.22. Take `O=S(=O)(CCO)c1nc2n(n1)[C@H](c1ccccc1)C[C@@H]2F` (single isomer, unassigned) [Example 223]: the negative-log Ki (pKi) was 6.72. `COCCS(=O)(=O)c1nc2n(n1)[C@H](c1ccccc1)C[C@@H]2F` (single isomer, unassigned) [Example 224]: the pKi was 6.74. `O=S(=O)(c1nc2n(n1)[C@H](c1ccccc1)C[C@@H]2F)[C@H]1C[C@@H](O)C1` (single isomer, unassigned) [Example 225] had a pKi of 6.52. As for `O=S(=O)(c1nc2n(n1)[C@H](c1cccc(F)c1)C[C@@H]2F)[C@H]1C[C@H](F)C1` (single isomer, unassigned) [Example 226], the pKi was 8.03. Then `O=S(=O)(c1nc2n(n1)[C@H](c1ccccc1)C[C@@H]2F)C1COC1` (single isomer, unassigned) [Example 228], with 8.22; and `[O-][S+](c1nc2n(n1)[C@H](c1cc(F)cc(F)c1)CC2)C(F)F` (stereo in doubt) [Example 173, (5S)-2-[(S)-difluoromethylsulfinyl]-5-(3,5-difluorophenyl)-6,7-dihydro-5H-pyrrolo[1,2-b][1,2,4]triazole], with 7.72. Then `[O-][S+](c1nc2n(n1)[C@H](c1cc(F)cc(F)c1)CC2)C(F)F` (stereo in doubt) [Example 174, (5S)-2-[(R)-difluoromethylsulfinyl]-5-(3,5-difluorophenyl)-6,7-dihydro-5H-pyrrolo[1,2-b][1,2,4]triazole], with 6.51.

With `O=S(=O)(c1nc2n(n1)[C@H](c1ccc(F)cc1)C[C@@H]2F)C1CC1F` (stereo in doubt) [Example 196, (5S,7S)-7-fluoro-5-(4-fluorophenyl)-2-[(1S,2S)-2-fluorocyclopropyl]sulfonyl-6,7-dihydro-5H-pyrrolo[1,2-b][1,2,4]triazole], the negative logarithm of the Ki (pKi) is 7.49.

Take `O=S(=O)(c1nc2n(n1)[C@H](c1ccc(F)cc1)C[C@@H]2F)C1CC1F` (stereo in doubt) [Example 197, (5S,7S)-7-fluoro-5-(4-fluorophenyl)-2-[(1R,2R)-2-fluorocyclopropyl]sulfonyl-6,7-dihydro-5H-pyrrolo[1,2-b][1,2,4]triazole]: the pKi is 8.10. For `O=S(=O)(c1nc2n(n1)[C@H](c1cc(F)cc(Cl)c1)C[C@@H]2F)C1CC1F` (stereo in doubt) [Example 199, (5S,7S)-5-(3-chloro-5-fluoro-phenyl)-7-fluoro-2-[(1S,2S)-2-fluorocyclopropyl]sulfonyl-6,7-dihydro-5H-pyrrolo[1,2-b][1,2,4]triazole] the value was 8.10; for `O=S(=O)(c1nc2n(n1)[C@H](c1cc(F)cc(Cl)c1)C[C@@H]2F)C1CC1F` (stereo in doubt) [Example 200, (5S,7S)-5-(3-chloro-5-fluoro-phenyl)-7-fluoro-2-[(1R,2R)-2-fluorocyclopropyl]sulfonyl-6,7-dihydro-5H-pyrrolo[1,2-b][1,2,4]triazole], 7.32; for `O=S(=O)(c1nc2n(n1)[C@H](c1cc(F)ccc1F)C[C@@H]2F)C1CC1F` (stereo in doubt) [Example 201, (5S,7S)-5-(2,5-difluorophenyl)-7-fluoro-2-[(1S,2S)-2-fluorocyclopropyl]sulfonyl-6,7-dihydro-5H-pyrrolo[1,2-b][1,2,4]triazole], 7.60. With `O=S(=O)(c1nc2n(n1)[C@H](c1cc(F)ccc1F)C[C@@H]2F)C1CC1F` (stereo in doubt) [Example 202, (5S,7S)-5-(2,5-difluorophenyl)-7-fluoro-2-[(1R,2R)-2-fluorocyclopropyl]sulfonyl-6,7-dihydro-5H-pyrrolo[1,2-b][1,2,4]triazole], the pKi was > 8.30. Turning to `O=S(=O)(c1nc2n(n1)[C@H](c1ccccc1F)C[C@@H]2F)C1CC1F` (stereo in doubt) [Example 205, (5S,7S)-7-fluoro-5-(2-fluorophenyl)-2-[(1S,2S)-2-fluorocyclopropyl]sulfonyl-6,7-dihydro-5H-pyrrolo[1,2-b][1,2,4]triazole], the pKi is 7.70. On to `O=S(=O)(c1nc2n(n1)[C@H](c1ccccc1F)C[C@@H]2F)C1CC1F` (stereo in doubt) [Example 206, (5S,7S)-7-fluoro-5-(2-fluorophenyl)-2-[(1R,2R)-2-fluorocyclopropyl]sulfonyl-6,7-dihydro-5H-pyrrolo[1,2-b][1,2,4]triazole], for which the pKi is 8.00. Then `O=S(=O)(c1nc2n(n1)[C@H](c1cc(Cl)ccc1F)C[C@@H]2F)C1CC1F` (stereo in doubt) [Example 207, (5S,7S)-5-(5-chloro-2-fluoro-phenyl)-7-fluoro-2-[(1S,2S)-2-fluorocyclopropyl]sulfonyl-6,7-dihydro-5H-pyrrolo[1,2-b][1,2,4]triazole], with 7.43; and `O=S(=O)(c1nc2n(n1)[C@H](c1cccc(F)c1F)C[C@@H]2F)C1CC1F` (stereo in doubt) [Example 216, (5S,7S)-5-(2,3-difluorophenyl)-7-fluoro-2-[(1S,2S)-2-fluorocyclopropyl]sulfonyl-6,7-dihydro-5H-pyrrolo[1,2-b][1,2,4]triazole], with > 8.30. Then `O=S(=O)(c1nc2n(n1)[C@H](c1cc(Cl)ccc1F)C[C@@H]2F)C1CC1F` (stereo in doubt) [Example 218, (5S,7S)-5-(5-chloro-2-fluoro-phenyl)-7-fluoro-2-[(1R,2R)-2-fluorocyclopropyl]sulfonyl-6,7-dihydro-5H-pyrrolo[1,2-b][1,2,4]triazole], with 6.85; and `N#CC1CC1S(=O)(=O)c1nc2n(n1)[C@H](c1ccccc1)C[C@@H]2F` (stereo in doubt) [Example 221, (1S,2S)-2-[[(5S,7S)-7-fluoro-5-phenyl-6,7-dihydro-5H-pyrrolo[1,2-b][1,2,4]triazol-2-yl]sulfonyl]cyclopropanecarbonitrile], with 7.74; and `N#CC1CC1S(=O)(=O)c1nc2n(n1)[C@H](c1ccccc1)C[C@@H]2F` (stereo in doubt) [Example 222, (1R,2R)-2-[[(5S,7S)-7-fluoro-5-phenyl-6,7-dihydro-5H-pyrrolo[1,2-b][1,2,4]triazol-2-yl]sulfonyl]cyclopropanecarbonitrile], with 7.21. In turn, `[O-][S+](c1nc2n(n1)C(c1ccccc1)CC2)C(F)F` (centres unmarked) [Example 1, 2-(difluoromethylsulfinyl)-5-phenyl-6,7-dihydro-5H-pyrrolo[1,2-b][1,2,4]triazole] gave a pKi of 7.24.

Take `CC[S@+]([O-])c1nc2n(n1)[C@H](c1ccccc1)CC2` [Example 3, (5S)-2-[(S)-ethylsulfinyl]-5-phenyl-6,7-dihydro-5H-pyrrolo[1,2-b][1,2,4]triazole]: the pKi is 6.79. For `[O-][S+](c1nc2n(n1)C(c1ccccc1)CC2)C(F)(F)c1ccccc1` (centres unmarked) [Example 5, 2-[difluoro(phenyl)methyl]sulfinyl-5-phenyl-6,7-dihydro-5H-pyrrolo[1,2-b][1,2,4]triazole] the value was 6.26.
